Measurements reported in patent US20160228444A1, “NUCLEOSIDE ANALOGS AND USES THEREOF” (Ramot at Tel-Aviv University Ltd., priority 2015, published 2016).
Where two headings read alike, the source gives them in different places.

What was measured:
[1] = tested on: HDACs of classes I and II; test: HDAC activity in intact cells (Fluor de Lys kit); format: cell-based, human; conditions: both U251 and Daudi cells, 2 h, FIG. 1B
Method: U251 or Daudi cells seeded in 96-well plates (10^4 cells/well, in quadruplicates) in growth medium for 24 h were then treated as indicated for 2 h in the presence of the HDAC substrate (Fluor de Lys™). The reaction was terminated by the addition of the Fluor de Lys™ developer (Biomol Research Labs) and […] trichostatin A (TSA). All of the above reagents were included in a kit for measuring activities of HDACs of classes I and II (AK-503, Biomol Research Labs). The percentage inhibition was calculated from the ratio of the fluorescence (measured at 355 nm excitation and at 460 nm emission) in the drug treated compared with the untreated control culture.

PBL = test: Median-effect drug interaction, MTT viability, 72 h; format: cell-based; conditions: Homo sapiens
Method: Cell viability was determined by an MTT cell viability assay after 48 hours. MyLa cells (10^4 cells/well), Hut78 cells (5×10^3 cells/well) and normal PBLs (10^5 cells/well) were seeded in 96 well-plates. The PBLs were activated with 40 μg/10^6 cells of phytohemagglutinine (PHA) for 24 h before the experiment.
(§1) The ratios of the drug combination were based on the ratio of their IC50 of each drug alone. Cell viability was determined by MTT assay, as described hereinabove. The drugs were added to the cells and incubated for 72 h.

MDA-231 cells = test: Median-effect drug interaction, Hoechst viability, 72 h; format: cell-based, human; conditions: for IC50: Homo sapiens
Method: as §1
(§2) Drug interaction in adherent cells was evaluated as above except that the viability was determined by Hoechst assay.

[2] = tested on: NCI-N87 gastric carcinoma cells; test: as above; format: cell-based, human; conditions: for IC50: Homo sapiens
Method: as §1, §2

T47D cells = test: as above; format: cell-based, human; conditions: for IC50: Homo sapiens
Method: as §1, §2

HO-1 = HO-1 protein and mRNA in tumor and heart of xenograft mice (Western blot, qRT-PCR); format: in vivo; conditions: heart
Method: Tumors and hearts of the mice were rapidly removed, frozen on dry ice and kept at −70° C. Tissue was then homogenized and RNA and proteins extracted using the NucleoSpin® RNA/Protein kit according to the manufacturer's protocol (Macherey-Nagel, GmbH & Co KG).
Total RNA ([…]) was primed by oligo dT and reverse-transcribed by Verso cDNA kit according to the manufacturer's protocol (Thermo Scientific). Analyses of qPCR were performed with Kapa Sybr® Fast (Kapa Biosystems) on a Step One Plus thermocycler (Applied Biosystems). The comparative threshold method was used to calculate the relative gene expression. Values were normalized against glyceraldehyde 3-phosphate dehydrogenase (GAPDH). Expression of the GAPDH mRNA in each individual sample was used to normalize the dataset. The sequences of the primers were as follows: […]
Protein levels in the samples were determined with the BCA protein assay kit (Pierce). The samples were subjected to Western blot analyses. The expression of proteins was visualized using their specified primary antibodies followed by the secondary IgG IRDye® 680DX antibody. Each detected band was quantified using the Odyssey Infrared Imaging System (LI-COR Biosciences) and normalized to the level of actin. The fold increase of a specific protein was determined by the ratio of the band intensity obtained from treated and untreated samples.
The effect of the drugs on the expression of genes associated with cell survival and death was examined by following changes in transcription and protein expression in tissue samples taken from the mice with glioblastoma xenografts. Heme oxygenase (HO-1) is known to play a protective role in the heart, whereas, in many cancers it is expressed and promotes growth and survival of neoplastic cells.

[3] = tested on: acetylated H3 histone in H9C2 cardiomyoblasts; test: Histone H3 acetylation (Western blot), 24 hours; format: cell-based, rat; conditions: FIG. 12
Method: The effects of the abovementioned HDAC inhibitors on histone acetylation were also compared. U251 and H9C2 cells were treated with the HDAC inhibitors for 24 hours (according to procedures described hereinabove with respect to FIGS. 9 and 10), and then subjected to Western blot analysis.

[4] = tested on: 10 different cancer cell lines; test: Viability assay (Hoechst for adherent cells, MTT for suspension cells), 72 h
Method: Hoechst assay: 22RV-1, MCF-7, MCF-7DX, 4T1, U251, and T47D cells (3×10^3 cells/well) and NCI-N87 (8×10^3 cells/well) were seeded in tissue culture in growth medium for 24 h in 96-well plates (in triplicate) and then exposed to different concentrations (titration) of the tested drug for 72 h at 37° C. The plates were then rinsed with PBS and fixed with 100 ml of 70% ethanol for 30 min. […] The fluorescence was measured (excitation at 390 nm and emission at 460 nm) with a Synergy III Fluorometer-Elisa reader (BioTek Instruments, Inc. Germany). The viability of cells grown in suspension was measured by the MTT assay. HL-60, Daudi and Jurkat cells were seeded (5×10^3 cells/well) in 96-well plates in growth medium and immediately exposed to different concentrations (titration) of the tested drugs (in triplicate). After 72 h incubation, the MTT reagent in PBS (10 ml of 5 mg/ml) was added to the cell suspension and incubated for an additional 3 h. Then, 100 ml of 0.04 M HCl in isopropanol was added and the absorbance at 570 nm measured using a Synergy III Fluorometer-spectrophotometer ELISA reader.

TLR4 = TLR4 expression in LPS-treated THP1 cells (anti-TLR4 antibodies, FACS); format: cell-based; conditions: 1 μg/ml LPS, AN446 20 or 40 μM, FIG. 7A
Method: (§3) The effect of AN446 on inflammation-associated pathways was evaluated in the monocytic THP1 cell line and in the MDA-MB-231 breast carcinoma cell line. Supernatants of treated THP1 cells were collected and IL-6, IL-10 and TNF-α concentrations were quantified by ELISA (R&D systems). TLR4 expression in THP1 cells was assessed using fluorescent anti-TLR4 antibodies and FACS analysis. In addition, gene expression for MCP-1, TNF-α and TLR4 in MDA-MB-231 was evaluated by qRT-PCT, following treatment with AN446 and/or paclitaxel.

pH2AX in U251 cells = test: Phosphorylated H2AX (Western blot), 24 or 48 hours; format: cell-based, human; conditions: FIG. 13A
Method: The effects of the abovementioned HDAC inhibitors on DNA damage and repair were then assessed by evaluating changes in levels of phosphorylated histone H2AX (pH2AX), a marker of DNA double-strand breaks, and Rad51, a marker of homologous recombination-guided DNA repair of double-strand breaks [Nagathihalli & Nagaraju, Biochim Biophys Acta 2011, 1816:209-218; Rogakou et al., J Biol Chem 1998, 273:5858-5868].
U251 and H9C2 cells were treated with the HDAC inhibitors for 24 or 48 hours, and then subjected to Western blot analysis.

IL-10 = IL-10 in supernatant of LPS-treated THP1 cells (ELISA); format: cell-based; conditions: 1 μg/ml LPS, FIG. 7B
Method: as §3

TNF-α [5] = test: TNF-α gene expression in MDA-MB-231 cells (qRT-PCR); format: cell-based, human; conditions: combination with paclitaxel, FIG. 7C
Method: as §3

TNF-α [6] = test: TNF-α in supernatant of LPS-treated THP1 cells (ELISA); format: cell-based; conditions: 1 μg/ml LPS, AN446 20 or 40 μM, FIG. 7B
Method: as §3

In the case of `CCCC(CCC)C(=O)Nc1nc2c(ncn2COCCOC(=O)C(CCC)CCC)c(=O)[nH]1` [AN446, N-valproyl-9-(2-valproyloxy)ethoxymethyl-guanine], the “potency as HDAC inhibitor relative to AN7” value [1] is reported as 2-3 fold, the IC50 (PBL; read-out: com IC50, PBL, in combination with Dox) is reported as 187 µM and the IC50 (PBL; single agent, Table 2) is reported as 198 µM. It also gave an IC50 (MDA-231 cells; MDA-MB-231, MDA-231, in combination with Dox, read-out: com IC50) of 17 µM, an IC50 (MDA-231 cells; MDA-MB-231, MDA-231, in combination with paclitaxel, read-out: com IC50) of 14 ± 0.3 µM and an IC50 (MDA-231 cells; MDA-MB-231, MDA-231, single agent, Table 2, read-out: IC50) of 38 µM. The IC50 (MDA-231 cells; MDA-MB-231, MDA-231, single agent, Table 3, read-out: IC50) was 37.8 ± 1.1 µM, the “CI (combination index with paclitaxel)” value (MDA-231 cells; MDA-231) was 0.8 and the IC50 ([2]; NCI-N87, NCI-N87, single agent, Table 2) was 20 ± 3 µM. It also gave an IC50 ([2]; NCI-N87, NCI-N87, single agent, Table 3) of 20 ± 3 µM, an IC50 ([2]; NCI-N87, read-out: com IC50, NCI-N87, in combination with Dox) of 6 µM and an IC50 ([2]; NCI-N87, read-out: com IC50, NCI-N87, in combination with paclitaxel) of 9.1 ± 0.4 µM. For the same compound, the “CI (combination index with paclitaxel)” value ([2]; NCI-N87) was 0.76, the “CI (combination index with paclitaxel)” value (T47D cells) was 1.4 and the IC50 (T47D cells; read-out: com IC50, T47D, in combination with Dox) was 5.2 µM. It also gave an IC50 (T47D cells; read-out: com IC50, T47D, in combination with paclitaxel) of 13.6 ± 0.6 µM, an IC50 (T47D cells; single agent, Table 2) of 21.7 µM and an IC50 (T47D cells; single agent, Table 3) of 23.6 ± 0.6 µM. The “HO-1 expression in the heart” value (HO-1; co-treatment with Dox) was “increased the expression of this enzyme to a significantly higher level”, the “HO-1 mRNA in the heart, elevation of basal expression level” value (HO-1; co-treatment with Dox) was 3.89±0.35 fold and the “HO-1 expression in the heart (decrease)” value (HO-1; single agent, FIGS. 4D, 4E) was “did not significantly change”. The “histone acetylation in H9C2 cardiomyocytes” value [3] was “not in non-cancerous cardiomyocytes”, the IC50 ([4]; 72 h, read-out: IC50 (cell viability)) was 20 to 46 µM and the “potency in reducing the viability of cancer cells relative to AN7” value ([4]; from IC50 values, FIG. 1A) was 2-5 fold. For the same compound, the “LPS-induced expression of TLR4” value (TLR4) was “suppressed”, the “pH2AX levels in U251 cancer cells” value (pH2AX in U251 cells) was “considerably more effective than the other HDAC inhibitors at increasing pH2AX levels after 48 hours” and the “expression of IL-10” value (IL-10) was “doubled”. The “paclitaxel-induced increase in expression of TNF-α” value (TNF-α [5]) was “significantly attenuated” and the “LPS-induced expression of TNF-α” value (TNF-α [6]) was “suppressed”.
